Organism: Rattus norvegicus
Assay: DrugMatrix - Regimen: Daily Repeat
Assay type: toxicity, organism-based, Sprague-Dawley
Set-up: regimen Daily Repeat, gender Male, age 6-8 weeks
Details: in vivo, po, route oral GAVAGE, vehicle 100 % WATER; for ABSOLUTE BASOPHIL / ABSOLUTE EOSINOPHIL / ABSOLUTE LYMPHOCYTE / ABSOLUTE MONOCYTE / ABSOLUTE SEGMENTED NEUTROPHIL / BASOPHIL / EOSINOPHIL / ERYTHROCYTE COUNT / HEMATOCRIT / HEMOGLOBIN / LEUKOCYTE COUNT / LYMPHOCYTE / MEAN CORPUSCULAR HEMOGLOBIN / MEAN CORPUSCULAR HEMOGLOBIN CONCENTRATION / MEAN CORPUSCULAR VOLUME / MONOCYTE / NEUTROPHIL / NUCLEATED RED BLOOD CELLS / PLATELET COUNT: tissue Blood; for ALANINE AMINOTRANSFERASE / ALBUMIN / ALKALINE PHOSPHATASE / ASPARTATE AMINOTRANSFERASE / BLOOD UREA NITROGEN / CARBON DIOXIDE / CHLORIDE / CHOLESTEROL / CREATINE PHOSPHOKINASE / CREATININE / GLUCOSE / LACTATE DEHYDROGENASE / LIPASE / PHOSPHORUS / POTASSIUM / SODIUM / TOTAL BILIRUBIN / TOTAL PROTEIN / URIC ACID: tissue Plasma
[1] = 20 mg/kg, 72 h, dose level Low, time 3 day
[2] = 20 mg/kg, 120 h, dose level Low, time 5 day
[3] = 688 mg/kg, 72 h, dose level High, time 3 day
[4] = 688 mg/kg, 120 h, dose level High, time 5 day

## COc1ccc(CN(CCN(C)C)c2ccccn2)cc1 [PYRILAMINE]
[1]
  ABSOLUTE BASOPHIL: 0 CELLS/uL
  ABSOLUTE EOSINOPHIL: 0 CELLS/uL
  ABSOLUTE LYMPHOCYTE: 6764.67 CELLS/uL
  ABSOLUTE MONOCYTE: 0 CELLS/uL
  ABSOLUTE SEGMENTED NEUTROPHIL: 435.33 CELLS/uL
  BASOPHIL: 0%
  EOSINOPHIL: 0%
  ERYTHROCYTE COUNT: 5.22 x10E6/uL
  HEMATOCRIT: 33.7%
  HEMOGLOBIN: 13.67 G/DL
  LEUKOCYTE COUNT: 7.2 x10E3/uL
  LYMPHOCYTE: 93.67%
  MEAN CORPUSCULAR HEMOGLOBIN: 26.2 pg
  MEAN CORPUSCULAR HEMOGLOBIN CONCENTRATION: 40.57 G/DL
  MEAN CORPUSCULAR VOLUME: 64.53 fL
  MONOCYTE: 0%
  NEUTROPHIL: 6.33%
  NUCLEATED RED BLOOD CELLS: 0 /100WBC
  PLATELET COUNT: 1037.67 x10E3/uL
  ALANINE AMINOTRANSFERASE: 45.67 u/L
  ALBUMIN: 4.37 G/DL
  ALKALINE PHOSPHATASE: 340.33 u/L
  ASPARTATE AMINOTRANSFERASE: 91.33 u/L
  BLOOD UREA NITROGEN: 16.67 mg/dL
  CARBON DIOXIDE: 33.67 mmol/L
  CHLORIDE: 98.33 MEQ/L
  CHOLESTEROL: 83 mg/dL
  CREATINE PHOSPHOKINASE: 408.33 u/L
  CREATININE: 0.23 mg/dL
  GLUCOSE: 112.67 mg/dL
  LACTATE DEHYDROGENASE: 148.67 u/L
  LIPASE: 10.33 u/L
  PHOSPHORUS: 11.07 mg/dL
  POTASSIUM: 6.81 MEQ/L
  SODIUM: 145.13 MEQ/L
  TOTAL BILIRUBIN: 0.2 mg/dL
  TOTAL PROTEIN: 6.37 G/DL
  URIC ACID: 0.83 mg/dL
[2]
  ABSOLUTE BASOPHIL: 0 CELLS/uL
  ABSOLUTE EOSINOPHIL: 0 CELLS/uL
  ABSOLUTE LYMPHOCYTE: 14373.33 CELLS/uL
  ABSOLUTE MONOCYTE: 89.33 CELLS/uL
  ABSOLUTE SEGMENTED NEUTROPHIL: 1937.33 CELLS/uL
  BASOPHIL: 0%
  EOSINOPHIL: 0%
  ERYTHROCYTE COUNT: 5.38 x10E6/uL
  HEMATOCRIT: 33.67%
  HEMOGLOBIN: 13.67 G/DL
  LEUKOCYTE COUNT: 16.4 x10E3/uL
  LYMPHOCYTE: 88.33%
  MEAN CORPUSCULAR HEMOGLOBIN: 25.47 pg
  MEAN CORPUSCULAR HEMOGLOBIN CONCENTRATION: 40.63 G/DL
  MEAN CORPUSCULAR VOLUME: 62.73 fL
  MONOCYTE: 0.67%
  NEUTROPHIL: 11%
  NUCLEATED RED BLOOD CELLS: 0 /100WBC
  PLATELET COUNT: 1183.67 x10E3/uL
  ALANINE AMINOTRANSFERASE: 53.33 u/L
  ALBUMIN: 4.13 G/DL
  ALKALINE PHOSPHATASE: 437.33 u/L
  ASPARTATE AMINOTRANSFERASE: 80.67 u/L
  BLOOD UREA NITROGEN: 17 mg/dL
  CARBON DIOXIDE: 28.67 mmol/L
  CHLORIDE: 104.67 MEQ/L
  CHOLESTEROL: 64.33 mg/dL
  CREATINE PHOSPHOKINASE: 242 u/L
  CREATININE: 0.17 mg/dL
  GLUCOSE: 160 mg/dL
  LACTATE DEHYDROGENASE: 86.33 u/L
  LIPASE: 8.67 u/L
  PHOSPHORUS: 14.2 mg/dL
  POTASSIUM: 6.63 MEQ/L
  SODIUM: 147.07 MEQ/L
  TOTAL BILIRUBIN: 0.17 mg/dL
  TOTAL PROTEIN: 6 G/DL
  URIC ACID: 1.7 mg/dL
[3]
  ABSOLUTE BASOPHIL: 0 CELLS/uL
  ABSOLUTE EOSINOPHIL: 0 CELLS/uL
  ABSOLUTE LYMPHOCYTE: 13165.67 CELLS/uL
  ABSOLUTE MONOCYTE: 0 CELLS/uL
  ABSOLUTE SEGMENTED NEUTROPHIL: 1201 CELLS/uL
  BASOPHIL: 0%
  EOSINOPHIL: 0%
  ERYTHROCYTE COUNT: 5.73 x10E6/uL
  HEMATOCRIT: 34.93%
  HEMOGLOBIN: 14.1 G/DL
  LEUKOCYTE COUNT: 14.37 x10E3/uL
  LYMPHOCYTE: 91.67%
  MEAN CORPUSCULAR HEMOGLOBIN: 24.63 pg
  MEAN CORPUSCULAR HEMOGLOBIN CONCENTRATION: 40.37 G/DL
  MEAN CORPUSCULAR VOLUME: 61.07 fL
  MONOCYTE: 0%
  NEUTROPHIL: 8.33%
  NUCLEATED RED BLOOD CELLS: 0 /100WBC
  PLATELET COUNT: 1288.33 x10E3/uL
  ALANINE AMINOTRANSFERASE: 50.67 u/L
  ALBUMIN: 4.27 G/DL
  ALKALINE PHOSPHATASE: 466 u/L
  ASPARTATE AMINOTRANSFERASE: 87.67 u/L
  BLOOD UREA NITROGEN: 12.33 mg/dL
  CARBON DIOXIDE: 34 mmol/L
  CHLORIDE: 100.67 MEQ/L
  CHOLESTEROL: 65.67 mg/dL
  CREATINE PHOSPHOKINASE: 183.33 u/L
  CREATININE: 0.13 mg/dL
  GLUCOSE: 155.33 mg/dL
  LACTATE DEHYDROGENASE: 142 u/L
  LIPASE: 9 u/L
  PHOSPHORUS: 13.33 mg/dL
  POTASSIUM: 6.65 MEQ/L
  SODIUM: 145.23 MEQ/L
  TOTAL BILIRUBIN: 0.1 mg/dL
  TOTAL PROTEIN: 5.8 G/DL
  URIC ACID: 1.7 mg/dL
[4]
  ABSOLUTE BASOPHIL: 0 CELLS/uL
  ABSOLUTE EOSINOPHIL: 82 CELLS/uL
  ABSOLUTE LYMPHOCYTE: 13712.5 CELLS/uL
  ABSOLUTE MONOCYTE: 237 CELLS/uL
  ABSOLUTE SEGMENTED NEUTROPHIL: 1918.5 CELLS/uL
  BASOPHIL: 0%
  EOSINOPHIL: 0.5%
  ERYTHROCYTE COUNT: 6.11 x10E6/uL
  HEMATOCRIT: 37.55%
  HEMOGLOBIN: 14.85 G/DL
  LEUKOCYTE COUNT: 15.95 x10E3/uL
  LYMPHOCYTE: 86%
  MEAN CORPUSCULAR HEMOGLOBIN: 24.3 pg
  MEAN CORPUSCULAR HEMOGLOBIN CONCENTRATION: 39.6 G/DL
  MEAN CORPUSCULAR VOLUME: 61.35 fL
  MONOCYTE: 1.5%
  NEUTROPHIL: 12%
  NUCLEATED RED BLOOD CELLS: 0 /100WBC
  PLATELET COUNT: 1201.5 x10E3/uL
  ALANINE AMINOTRANSFERASE: 60.5 u/L
  ALBUMIN: 4.45 G/DL
  ALKALINE PHOSPHATASE: 346.5 u/L
  ASPARTATE AMINOTRANSFERASE: 96 u/L
  BLOOD UREA NITROGEN: 14.5 mg/dL
  CARBON DIOXIDE: 35.5 mmol/L
  CHLORIDE: 99 MEQ/L
  CHOLESTEROL: 60 mg/dL
  CREATINE PHOSPHOKINASE: 292 u/L
  CREATININE: 0.24 mg/dL
  GLUCOSE: 142 mg/dL
  LACTATE DEHYDROGENASE: 333.5 u/L
  LIPASE: 11 u/L
  PHOSPHORUS: 13.2 mg/dL
  POTASSIUM: 6.7 MEQ/L
  SODIUM: 146.5 MEQ/L
  TOTAL BILIRUBIN: 0.15 mg/dL
  TOTAL PROTEIN: 6 G/DL
  URIC ACID: 2 mg/dL

Reference: ChEMBL document CHEMBL3885881, “DrugMatrix”
